Data: PMC5068912 (Psychopharmacology, 2016)
Where a name gives a salt, the structure may show the parent alone. Read-outs that look alike come from different tables or passages of the source.

Columns and labels:
mice [1] = settings: 10 mg/kg ip; ref Ramabadran 1982; cited from earlier work
DOR [2] = settings: mouse, in vivo
MOR [3] = settings: pH 7.4
DOR [4] = settings: in vitro; ref Mosberg et al. 2014; cited from earlier work
mice [5] = settings: mouse, in vivo; cited from earlier work
DOR [6] = settings: in vitro; ref Mosberg et al. 2014; cited from earlier work; remark: listed apart in the source
C57BL/6 wild-type mice [7] = settings: for ED50, WWTW antinociception: mean ± SEM
C57BL/6 wild-type mice [8] = settings: mouse, in vivo
MOR [9] = settings: cited from earlier work
C57BL/6 wild-type mice [10] = settings: mouse, in vivo; remark: listed apart in the source
MOR knock-out mice = settings: ip, up to 32 mg/kg, n=6
MOR [11] = settings: in vitro; ref Mosberg et al. 2014; cited from earlier work

C[N+]1(CC2CC2)CC[C@]23c4c5ccc(O)c4O[C@H]2C(=O)CC[C@@]3(O)[C@H]1C5 (some centres unmarked) [MNTX, methylnaltrexone HBr]
block of opioid effects (mice [1]): block peripheral, but not central, effects of opioids

Oc1ccc2c3c1O[C@H]1c4[nH]c5ccccc5c4C[C@@]4(O)[C@@H](C2)N(CC2CC2)CC[C@]314 [NTI, Naltrindole HCl, reference compound]
SNC80-induced decrease in immobility after pretreatment (DOR [2]): blocked
immobility in NTI pretreated mice vs vehicle treated mice (DOR [2]): not statistically different from immobility in vehicle treated mice

Dmt-c(SEtS)[DCys-Aic-DPen]-Ser(β-glucose)-NH2 [VRP26]
relative efficacy at MOR (MOR [3]): 0.28
antagonism at DOR (DOR [4]): antagonism at DOR
acute tolerance (mice [5]): does not produce acute tolerance
antinociception, WWTW (mice [5]): dose-dependent antinociception
affinity for DOR (DOR [6]): low nanomolar affinity
effect of pretreatment (vehicle vs MNTX) on VRP26 antinociception (C57BL/6 wild-type mice [7]; 10 mg/kg MNTX ip, two way ANOVA, effect of dose F(4, 40) = 393.6, p < 0.0001): no effect of pretreatment (vehicle vs MNTX)
ED50, WWTW antinociception (C57BL/6 wild-type mice [7]; VRP26 ip, pretreated with 10 mg/kg MNTX ip, n=6): 4.73 ± 0.13 mg/kg
dose-dependence of tail withdrawal latency increase (C57BL/6 wild-type mice [7]; VRP26 ip, vehicle and 10 mg/kg MNTX pretreated mice, n=6): dose-dependent increases in tail withdrawal latency
ED50, WWTW antinociception (C57BL/6 wild-type mice [7]; VRP26 ip, vehicle pretreated mice, n=6): 4.73 ± 0.22 mg/kg
dose producing maximal response (C57BL/6 wild-type mice [7]; ip, both vehicle and MNTX pretreated mice): 10 mg/kg
ED50 of VRP26, day 1, saline treated group (C57BL/6 wild-type mice [8]): 5.35 ± 0.17 mg/kg
ED50 of VRP26, day 8, saline treated group (C57BL/6 wild-type mice [8]): 5.07 ± 0.23 mg/kg
shift in the dose response curve after chronic treatment (C57BL/6 wild-type mice [8]): no shift in the dose response curve
tail withdrawal latency, wild type vs MOR knock-out littermates (wild type littermates; 10 mg/kg ip, t(10) = 9.161, p < 0.0001): significantly increased withdrawal latency in wild type mice as compared with MOR knock-out littermates
dose producing maximal antinociceptive effect (wild type littermates; ip, wild type littermates): 10 mg/kg
ED50, WWTW antinociception (wild type littermates; ip, wild type littermates of MOR knock-out mice, mean ± SEM, n=6): 4.77 ± 0.32 mg/kg
affinity balance between MOR and DOR (MOR [9]; discussion statement, source not given there): balanced affinity between MOR and DOR
affinity for MOR (MOR [9]; in vitro, ref Mosberg et al. 2014): low nanomolar affinity
dose producing maximal antinociceptive effect (C57BL/6 wild-type mice [10]): 10 mg/kg
lowest, maximally-effective, acute dose in the WWTW assay (C57BL/6 wild-type mice [10]): 10 mg/kg
ED50, WWTW antinociception (C57BL/6 wild-type mice [10]; ip): 5.44 ± 0.10 mg/kg
ED50, WWTW antinociception (C57BL/6 wild-type mice [10]; sc): 5.08 ± 0.23 mg/kg
increase in tail withdrawal latency (MOR knock-out mice): failed to produce a significant increase in tail withdrawal latency up to 32 mg/kg
SNC80-induced decrease in immobility after pretreatment (DOR [2]): partially blocked SNC80-induced decreases in immobility
immobility, compound alone vs control (DOR [2]; sc, 10 mg/kg): no effect on immobility as compared with control
agonist activity at MOR (MOR [11]): agonist activity at MOR similar to morphine
